HELM strings list units from the 5' end as sugar, base in round brackets, then linkage (d deoxyribose, r ribose, m 2'-O-methyl, p phosphodiester). Strings are as the collection lists them; they lack the last nucleoside at the 3' end of the tested compound. [moe] = 2'-O-(2-methoxyethyl) (MOE); [sp] = phosphorothioate linkage; [m5C] = 5-methylcytosine
Target: SOD1
Assay: mouse, dose not given
Details: ASO

Substance | 3 h FOB score [score 0-7]
RNA1{[moe]([m5C])[sp].[moe]([m5C])[sp].[moe](G)[sp].[moe](T)[sp].[moe]([m5C])[sp].d(G)[sp].d([m5C])[sp].d([m5C])[sp].d([m5C])[sp].d(T)[sp].d(T)[sp].d([m5C])[sp].d(A)[sp].d(G)[sp].d([m5C])[sp].[moe](A)[sp].[moe]([m5C])[sp].[moe](G)[sp].[moe]([m5C])}$$$$ (last 3' nucleoside missing) | 6.5
RNA1{[moe]([m5C])[sp].[moe](A)p.[moe](G)[sp].[moe](G)p.[moe](A)[sp].d(T)[sp].d(A)[sp].d([m5C])[sp].d(A)[sp].d(T)[sp].d(T)[sp].d(T)[sp].d([m5C])[sp].d(T)[sp].d(A)[sp].[moe]([m5C])p.[moe](A)[sp].[moe](G)p.[moe]([m5C])}$$$$ (last 3' nucleoside missing) | 1.25

— the OligoGym collection
